ChEMBL document CHEMBL4371004, “A-C Estrogens as Potent and Selective Estrogen Receptor-Beta Agonists (SERBAs) to Enhance Memory Consolidation under Low-Estrogen Conditions” (J Med Chem, 2018)
Calls of active or inactive are those of the source. No cut-off for these calls is given here.

Tests used:
[1] = target: T1, Androgen receptor (Homo sapiens) (UniProt P10275); test: Agonist activity at GAL4 DNA binding domain fused androgen receptor ligand binding domain (unknown origin) at 0.25 to 25 uM by FRET-based assay
T1 sequence (whole entry): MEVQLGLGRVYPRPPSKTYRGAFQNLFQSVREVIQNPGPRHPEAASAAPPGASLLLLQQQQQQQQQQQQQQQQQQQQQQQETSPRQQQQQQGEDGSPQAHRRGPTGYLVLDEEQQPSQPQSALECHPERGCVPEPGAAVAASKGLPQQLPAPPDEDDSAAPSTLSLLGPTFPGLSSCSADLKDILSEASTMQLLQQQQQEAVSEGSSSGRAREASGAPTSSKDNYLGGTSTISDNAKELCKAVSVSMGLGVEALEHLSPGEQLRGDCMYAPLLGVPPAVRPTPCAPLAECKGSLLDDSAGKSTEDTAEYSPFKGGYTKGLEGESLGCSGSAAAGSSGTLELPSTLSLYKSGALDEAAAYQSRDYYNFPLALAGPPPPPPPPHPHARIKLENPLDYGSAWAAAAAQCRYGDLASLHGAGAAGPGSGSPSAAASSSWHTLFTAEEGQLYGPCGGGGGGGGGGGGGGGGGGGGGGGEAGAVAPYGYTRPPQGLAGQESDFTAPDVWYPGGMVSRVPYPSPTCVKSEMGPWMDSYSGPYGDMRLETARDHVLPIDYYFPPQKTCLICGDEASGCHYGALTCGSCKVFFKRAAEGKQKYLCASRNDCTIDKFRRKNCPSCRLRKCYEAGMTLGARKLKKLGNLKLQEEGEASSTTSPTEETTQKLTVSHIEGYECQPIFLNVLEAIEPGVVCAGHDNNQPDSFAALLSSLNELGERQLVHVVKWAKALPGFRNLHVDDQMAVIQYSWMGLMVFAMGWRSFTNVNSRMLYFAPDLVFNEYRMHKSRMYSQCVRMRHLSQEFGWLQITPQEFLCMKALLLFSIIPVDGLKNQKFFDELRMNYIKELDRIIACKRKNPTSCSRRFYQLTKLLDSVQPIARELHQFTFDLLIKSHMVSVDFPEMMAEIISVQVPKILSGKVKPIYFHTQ

[2] = target: T2, Vitamin D3 receptor (Homo sapiens) (UniProt P11473); test: Agonist activity at GAL4 DNA binding domain fused VDR ligand binding domain (unknown origin) at 0.25 to 25 uM by FRET-based assay
T2 sequence (whole entry): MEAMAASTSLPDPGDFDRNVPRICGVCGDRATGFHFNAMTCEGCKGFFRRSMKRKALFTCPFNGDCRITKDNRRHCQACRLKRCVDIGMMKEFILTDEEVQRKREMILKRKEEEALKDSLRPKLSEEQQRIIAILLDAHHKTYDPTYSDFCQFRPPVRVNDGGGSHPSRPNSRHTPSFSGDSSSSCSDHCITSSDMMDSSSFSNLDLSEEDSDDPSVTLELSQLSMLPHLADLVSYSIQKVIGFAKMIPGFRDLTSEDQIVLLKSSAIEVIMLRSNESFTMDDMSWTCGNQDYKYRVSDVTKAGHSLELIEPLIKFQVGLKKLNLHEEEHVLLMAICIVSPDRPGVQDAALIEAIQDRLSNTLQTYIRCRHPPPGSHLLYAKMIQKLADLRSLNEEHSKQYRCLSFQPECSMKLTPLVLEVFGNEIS

Cytochrome P450 1A2 = target: T3, Cytochrome P450 1A2 (Homo sapiens, UniProt P05177); test: Inhibition of human recombinant CYP1A2 up to 100 uM preincubated for 10 mins followed by NADPH addition and measured after 10 to 30 mins by P450-Glo luminescence assay; type: ADME; conditions: recombinant enzyme
T3 sequence (P05177 whole entry): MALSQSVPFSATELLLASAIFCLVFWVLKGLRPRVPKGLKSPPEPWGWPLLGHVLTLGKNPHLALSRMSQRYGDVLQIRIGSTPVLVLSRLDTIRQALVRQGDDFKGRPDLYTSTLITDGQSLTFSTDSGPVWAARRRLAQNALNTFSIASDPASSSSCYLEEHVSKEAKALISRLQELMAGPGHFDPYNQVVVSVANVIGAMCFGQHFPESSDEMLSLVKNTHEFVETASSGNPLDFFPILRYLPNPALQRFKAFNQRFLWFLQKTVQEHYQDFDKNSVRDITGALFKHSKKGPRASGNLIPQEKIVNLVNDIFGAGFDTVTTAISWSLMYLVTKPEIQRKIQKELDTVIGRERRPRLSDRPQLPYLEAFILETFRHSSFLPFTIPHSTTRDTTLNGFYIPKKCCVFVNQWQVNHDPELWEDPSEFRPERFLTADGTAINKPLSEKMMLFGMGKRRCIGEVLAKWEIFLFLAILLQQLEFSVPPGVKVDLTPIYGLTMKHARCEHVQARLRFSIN

Cytochrome P450 2D6 = Cytochrome P450 2D6 (Homo sapiens, UniProt P10635); test: Inhibition of human recombinant CYP2D6 up to 100 uM preincubated for 10 mins followed by NADPH addition and measured after 10 to 30 mins by P450-Glo luminescence assay; type: ADME; conditions: recombinant enzyme
Sequence of Cytochrome P450 2D6 (P10635 whole entry): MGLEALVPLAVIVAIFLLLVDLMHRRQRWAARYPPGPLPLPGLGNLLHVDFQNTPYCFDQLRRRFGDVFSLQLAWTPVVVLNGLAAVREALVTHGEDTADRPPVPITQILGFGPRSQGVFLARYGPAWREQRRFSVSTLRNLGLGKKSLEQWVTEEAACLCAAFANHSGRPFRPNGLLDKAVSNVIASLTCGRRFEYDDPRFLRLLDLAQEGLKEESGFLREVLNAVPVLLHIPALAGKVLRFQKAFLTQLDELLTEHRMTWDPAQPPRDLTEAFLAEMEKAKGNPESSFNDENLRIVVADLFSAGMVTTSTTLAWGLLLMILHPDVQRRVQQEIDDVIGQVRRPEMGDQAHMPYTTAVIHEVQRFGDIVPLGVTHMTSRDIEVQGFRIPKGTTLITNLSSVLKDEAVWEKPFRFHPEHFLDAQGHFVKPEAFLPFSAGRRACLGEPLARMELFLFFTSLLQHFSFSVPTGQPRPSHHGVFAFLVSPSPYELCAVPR

Mus musculus = test: Memory enhancement effect in C57BL/6 mouse assessed as time spent with moved object at 5 mg/kg, ip by novel object recognition test; type: functional
Estrogen receptor = target: T4, Estrogen receptor (Homo sapiens, UniProt P03372)
T4 sequence (P03372 whole entry): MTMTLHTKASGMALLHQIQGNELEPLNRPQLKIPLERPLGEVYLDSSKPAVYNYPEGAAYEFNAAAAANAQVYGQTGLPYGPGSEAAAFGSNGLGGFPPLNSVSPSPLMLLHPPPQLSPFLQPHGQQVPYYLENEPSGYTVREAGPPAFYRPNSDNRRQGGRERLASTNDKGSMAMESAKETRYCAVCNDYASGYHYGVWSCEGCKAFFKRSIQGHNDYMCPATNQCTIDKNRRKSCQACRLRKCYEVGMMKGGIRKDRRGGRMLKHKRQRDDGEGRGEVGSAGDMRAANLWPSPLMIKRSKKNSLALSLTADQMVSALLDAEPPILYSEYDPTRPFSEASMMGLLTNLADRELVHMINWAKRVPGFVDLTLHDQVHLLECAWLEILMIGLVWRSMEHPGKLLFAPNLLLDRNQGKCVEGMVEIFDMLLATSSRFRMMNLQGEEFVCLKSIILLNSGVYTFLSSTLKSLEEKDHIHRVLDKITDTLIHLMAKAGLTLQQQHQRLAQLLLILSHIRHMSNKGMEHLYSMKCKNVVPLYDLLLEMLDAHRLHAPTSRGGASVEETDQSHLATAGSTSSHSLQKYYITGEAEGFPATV

Cytochrome P450 2C9 = Cytochrome P450 2C9 (Homo sapiens, UniProt P11712)
Sequence of Cytochrome P450 2C9 (P11712 whole entry): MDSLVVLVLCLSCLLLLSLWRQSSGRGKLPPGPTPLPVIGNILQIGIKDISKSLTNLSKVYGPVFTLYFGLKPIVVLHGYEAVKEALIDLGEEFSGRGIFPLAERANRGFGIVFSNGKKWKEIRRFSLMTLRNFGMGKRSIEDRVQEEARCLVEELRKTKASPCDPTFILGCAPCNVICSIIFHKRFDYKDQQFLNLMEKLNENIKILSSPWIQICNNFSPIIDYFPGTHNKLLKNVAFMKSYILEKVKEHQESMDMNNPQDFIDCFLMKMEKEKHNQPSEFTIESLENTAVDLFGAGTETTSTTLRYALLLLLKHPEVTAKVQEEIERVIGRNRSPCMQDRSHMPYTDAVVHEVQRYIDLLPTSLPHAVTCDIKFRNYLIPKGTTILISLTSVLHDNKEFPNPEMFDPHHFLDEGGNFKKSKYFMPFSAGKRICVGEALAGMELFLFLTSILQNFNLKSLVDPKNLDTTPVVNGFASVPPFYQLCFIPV
Description: Inhibition of human recombinant CYP2C9 preincubated for 10 mins followed by NADPH addition and measured after 10 to 30 mins by P450-Glo luminescence assay

## OC[C@H]1CC[C@H](c2ccc(O)cc2)CC1
[1]
  Activity: inactive
[2]
  Activity: inactive
Cytochrome P450 1A2
  inhibition (INH): Not Active
Cytochrome P450 2D6
  inhibition (INH): Not Active
Mus musculus
  Time: 2.78 s
Estrogen receptor
  IC50: 2.94 µM
Cytochrome P450 2C9
  EC50: 34 µM
